The text below walks through data of patent US9605027B2, “Polypeptides that bound to IL-23 receptor and inhibit binding of IL-23 and cell signaling thereof” (Medical Diagnostic Laboratories, LLC, priority 2011, dated 2017).

Molecules are shown by their SMILES. pIC50: −log10 of the molar value. “Also recorded” adds a separate entry of the source. Peptide text beside a SMILES is read from it.

For experiment [1], the target named is T1, Recombinant human IL-23R-Fc (Homo sapiens, UniProt Q5VWK5).
T1 construct: has the protein portion between the 24 amino acid residue to 353 amino acid residue; purchased R&D Systems 1400-IR-050
T1 sequence (Q5VWK5 24-353): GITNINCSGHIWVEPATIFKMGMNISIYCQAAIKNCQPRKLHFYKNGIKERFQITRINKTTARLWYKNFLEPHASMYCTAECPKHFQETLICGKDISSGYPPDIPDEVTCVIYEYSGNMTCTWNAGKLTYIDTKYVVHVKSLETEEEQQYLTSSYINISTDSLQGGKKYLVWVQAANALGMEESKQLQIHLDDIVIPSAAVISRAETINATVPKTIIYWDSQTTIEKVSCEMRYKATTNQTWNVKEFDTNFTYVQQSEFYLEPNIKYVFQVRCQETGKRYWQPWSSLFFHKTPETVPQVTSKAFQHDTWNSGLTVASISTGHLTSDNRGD
Nature of the experiment: Competitive ELISA, IL-23 binding to IL-23R. The following applies: for inhibition of IL-23 binding to its receptor by modified polypeptides, Competitive ELISA: procedure of Example 6, compared with parent polypeptide. The protocol:
The novel polypeptides were tested for their ability to inhibit IL-23 using a Competitive ELISA. In such an assay, IL-23R/Fc fusion protein was immobilized on a solid support. In this instance, the solid support was a 96-well plate, but the support may be any support that is typically used for an ELISA. The novel polypeptide and IL-23 were allowed to compete for binding to the immobilized IL-23R/Fc fusion protein. IL-23 that bound to IL-23R-Fc was detected using biotinylated anti-p40 antibody. The bound anti-p40 antibody was detected using streptavidin-horseradish peroxidase (HRP) and a tetramethylbenzidine (TMB) substrate was added to measure peroxidase activity. The color was measured at optical density (OD) 450nm. The color intensity was directly proportional to the amount of the bound IL-23 protein. […] (See, FIG. 16.)
(§1) FIG. 12 is a schematic depiction of the Competitive ELISA. Recombinant human IL-23R-Fc (2 μg/ml) was coated onto microtiter plates as a capture reagent. IL-23 and polypeptides were added to compete for binding to the immobilized IL-23R-Fc. IL-23 that bound to IL-23R-Fc was detected using biotinylated anti-p40 antibody (1:250). The bound anti-p40 antibody was detected using streptavidin-horseradish peroxidase (HRP) (1:500) and 100 μl/well of a tetramethylbenzidine (TMB) substrate was added to measure peroxidase activity. The color was measured at optical density (OD) 450nm. (See, FIG. 12). The color intensity was directly proportional to the amount of the bound IL-23 protein.
as §1, with “Recombinant” for “FIG. 12 is a schematic depiction of the Competitive ELISA. Recombinant”, “IL-23R-Fc. 50 μg human IL-23 (Cat. No. HZ-1048) (Humanzyme, Chicago, Ill.) in the presence or absence of 100 μM peptides was added to the well and incubated at 4° C. overnight.” for “IL-23R-Fc.”, “450nm.” for “450nm. (See, FIG. 12).”

Experiment [2] deals with IL-23 induced IL-22 production in human PBMCs (Homo sapiens, UniProt Q5VWK5). Nature of the experiment: IL-22 production induced by IL-23 in human PBMC. Type of experiment: cell-based. The following applies: IL-23 2 ng/ml, ELISA; read-out: IC50, inhibition of IL-22 production. The protocol: Peripheral blood mononuclear cells (PBMCs) were isolated from heparinized venous whole blood from healthy donors by density gradient centrifugation using Ficoll-Paque (Sigma-Aldrich, St Louis, Mo., USA). Human venous blood was purchased as anonymous buffy coats from the New Jersey Blood Transfusion Service. After isolation, the PBMCs were cultured in RPMI-1640 medium (Invitrogen-Gibco, Carlsbad, Calif.) supplemented with 10% heat-inactivated fetal bovine serum (Invitrogen-Gibco) and 1 mM of glutamine (Invitrogen-Gibco) at 37° C.
IL-23 induced IL-22 production in human PBMCs, sequence (Q5VWK5 24-629 limits assumed): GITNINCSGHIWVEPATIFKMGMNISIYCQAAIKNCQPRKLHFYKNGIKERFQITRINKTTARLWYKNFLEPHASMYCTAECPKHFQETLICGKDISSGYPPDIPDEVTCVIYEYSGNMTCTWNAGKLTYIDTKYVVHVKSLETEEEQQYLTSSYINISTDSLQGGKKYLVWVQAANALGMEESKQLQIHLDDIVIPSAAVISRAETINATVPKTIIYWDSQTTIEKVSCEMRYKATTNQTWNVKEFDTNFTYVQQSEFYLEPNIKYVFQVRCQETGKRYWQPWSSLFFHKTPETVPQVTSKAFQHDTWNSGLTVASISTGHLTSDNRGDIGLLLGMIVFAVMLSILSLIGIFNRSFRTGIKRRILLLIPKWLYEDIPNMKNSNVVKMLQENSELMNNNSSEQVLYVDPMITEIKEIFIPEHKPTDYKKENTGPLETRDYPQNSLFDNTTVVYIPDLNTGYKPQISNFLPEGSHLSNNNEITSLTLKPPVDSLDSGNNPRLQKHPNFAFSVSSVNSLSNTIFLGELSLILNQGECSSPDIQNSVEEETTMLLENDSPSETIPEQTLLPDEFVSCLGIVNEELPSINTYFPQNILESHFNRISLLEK
Isolated PBMCs (5×10^6 cells/ml) were cultured in the presence of […] and IL-18 (20 ng/ml). A serial dilution of IL-23 (from 0-2 ng/ml) was added to the cell culture for 30 hours. We measured the production of IL-22 by ELISA (Catalog #88-7522, eBioscience, San Diego, Calif.) according to manufacturer's protocol).
In order to measure the IC50 value of cyclic peptide no. 2HT AA (SEQ ID NO: 177), the cells were treated with a fixed amount of IL-23 cytokine (2 ng/ml) in the presence of a serial dilution of cyclic peptide no. 2HT AA (SEQ ID NO: 177). The cyclic peptide (SEQ ID NO: 177) inhibits IL-23 cytokine in PBMCs in a dose-dependent manner. […] Thus, the cyclic peptide no.

Turning to `CSCC[C@@H]1NC(=O)[C@H](CCCCN)NC(=O)[C@H](C)NC(=O)[C@H](C)NC(=O)[C@H](CS)NC(=O)[C@H](CC(N)=O)NC(=O)[C@H](CCCCN)NC(=O)[C@H](CC(C)C)NC(=O)[C@H](Cc2c[nH]c3ccccc23)NC(=O)[C@H](Cc2ccc(O)cc2)NC(=O)[C@H](CC(=O)O)NC(=O)[C@H](C(C)C)NC(=O)[C@H](Cc2c[nH]c3ccccc23)NC(=O)[C@H]([C@@H](C)O)NC1=O` [2HT AA] (cyclo(AAKMTWVDYWLKNC)), the pIC50 in experiment [1] (human IL-23 / IL-23R-Fc, read-out: IC50, cell-free competitive ELISA) is 8.09; in experiment [2], 6.47. Besides, the “inhibition of IL-23 binding to its receptor by modified polypeptides, Competitive ELISA” value in experiment [1] was “did not abrogate the polypeptides' ability; also recorded: best inhibitory activity”.
Consider `CSCC[C@@H]1NC(=O)[C@H](C)NC(=O)[C@@H](N)CSSC[C@@H](C(=O)O)NC(=O)[C@H](CCCNC(=N)N)NC(=O)CNC(=O)[C@H](Cc2ccc(O)cc2)NC(=O)[C@H](CC(C)C)NC(=O)[C@H](Cc2c[nH]c3ccccc23)NC(=O)[C@H](Cc2ccc(O)cc2)NC(=O)[C@H](CC(=O)O)NC(=O)[C@H](CCC(N)=O)NC(=O)[C@H](Cc2c[nH]c3ccccc23)NC(=O)[C@H]([C@@H](C)O)NC1=O` [23.19], for which, in experiment [1], the “inhibition of IL-23 binding to its receptor by modified polypeptides, Competitive ELISA” value is reported as “equally effective”.
